Test results as given in publication PMC9422153, “A novel antibiotic combination of linezolid and polymyxin B octapeptide PBOP against clinical Pseudomonas aeruginosa strains” (Annals of Clinical Microbiology and Antimicrobials, 2022).
In brackets after ≈: the same amount, converted by molar mass. Like-named read-outs stand apart in the source and are kept apart here. Bridge positions count the residues as written; N and C are the ends. Square brackets hold non-standard residues; d marks the D form. Peptide text beside a SMILES is read from it. Dab = NCC[C@H](N)C(=O)O

Legend:
P. aeruginosa PAB41 = assay: MIC, micro-dilution method; type: cell-based; conditions: Pseudomonas aeruginosa
Experimental: (§1) The MICs (minimal inhibitory concentrations) were determined for different P. aeruginosa strains using micro-dilution method, with a concentration of 1 × 10^5 CFU/mL on LB broth for 24 h, according to the published procedures. The experiment was carried out in three repeats.

P. aeruginosa PA2 = assay: MIC, micro-dilution method; type: cell-based; conditions: Pseudomonas aeruginosa
Experimental: as §1

P. aeruginosa ATCC27853 = assay: MIC, micro-dilution method; type: cell-based; conditions: Pseudomonas aeruginosa
Experimental: as §1

P. aeruginosa PA14 [1] = assay: MIC, micro-dilution method; type: cell-based; conditions: Pseudomonas aeruginosa
Experimental: as §1

P. aeruginosa PA14 [2] = type: cell-based, Pseudomonas aeruginosa
Experimental: Synergistic effect of the 6 polymyxin B or polymyxin E derivatives in combination with 5 conventional antibacterial agents was detected using the checkerboard method as described on the previous study. Briefly, the serial concentrations of test compounds were prepared by a two-dimensional array. The tested dilutions were based on the MICs of the two different compounds. The fractional inhibitory concentration index (FIC) was applied to illuminate the checkerboard test based on formulas as follows: FIC Index = […] = MICA+B/MICA, and FICB = MICB+A/MICB. The value of MICA+B is indicated as the MIC value of Compound A with Compound B, and equally for MICB+A. […] The experiments were repeated in triplicate.

[3] = tested on: all tested P. aeruginosa strains; type: cell-based, Pseudomonas aeruginosa; conditions: 24 h
Experimental: as §1

PAB41 = assay: Time-kill assay, bacterial burdens in vitro; type: cell-based, Pseudomonas aeruginosa; conditions: PAB41, 1 × 10^5 CFU in 96-well plates; 1 h, 6 h, 12 h, 24 h; LP compared to single-treated groups
Experimental: (§2) To explore the antibacterial activity of LP combination in the P. aeruginosa in vitro, PA14 were cultured in 96-well plates and were treated with PBS, linezolid, PBOP or LP for 1 h, 6 h, 12 h, and 24 h.
(§3) A1–A4 1 × 10^5 CFU of PA14 were seeded in 96-well plates and treated with PBS, linezolid, PBOP or combination of linezolid and PBOP (LP) for 1 h (A1), 6 h (A2), 12 h (A3), and 24 h (A4). The bacteria burdens on the LB agar plates were counted. B1–B4 1 × 10^5 CFU of PA2 were seeded in 96-well plates and treated with PBS, linezolid, PBOP or LP for 1 h (B1), 6 h (B2), 12 h (B3), and 24 h (B4). C1–C4 1 × 10^5 CFU of PAB41 were seeded in 96-well plates and treated with PBS, linezolid, PBOP or LP for 1 h (C1), 6 h (C2), 12 h (C3), and 24 h (C4). The bacteria burdens were determined as described above.

PA2 = assay: Time-kill assay, bacterial burdens in vitro; type: cell-based, Pseudomonas aeruginosa; conditions: PA2, 1 × 10^5 CFU in 96-well plates; 1 h, 6 h, 12 h, 24 h; LP compared to single-treated groups
Experimental: as §2, §3

[4] = tested on: C. elegans infected with PA14; assay: C. elegans infection model; type: in vivo, Caenorhabditis elegans; conditions: PA14 infection on SK plate, linezolid 8 μg/mL, PBOP 16 μg/mL; for bacterial loads inside C. elegans: 12 h and 24 h post infection; for survival of infected C. elegans: monitored 7 days
Experimental: To determine the protective effect of LP, all groups of C. elegans were infected with PA14 in slow killing (SK) agar plate and were treated with PBS, linezolid (8 μg/mL), PBOP (16 μg/mL) or LP. The mortality of the infected C. elegans was evaluated for 7 days. […] The bacterial loads inside the C. elegans were counted at 12 h or 24 h post-infection as previously described. Briefly, the infected nematodes were mixed with silicon carbide particles and vortexed at maximum speed for one minute. The resulting suspension was serially diluted and plated on a selective agar plate to determine the bacterial CFU. This experiment was performed in triplicate.

[5] = P. aeruginosa PAB41 (carbapenem-resistant clinical strain), micro-dilution, 1 × 10^5 CFU/mL, LB broth, 24 h, three repeats, read-out: MIC
[6] = P. aeruginosa PA2 (multidrug-resistant clinical strain), micro-dilution, 1 × 10^5 CFU/mL, LB broth, 24 h, three repeats, read-out: MIC
[7] = P. aeruginosa ATCC27853, micro-dilution, 1 × 10^5 CFU/mL, LB broth, 24 h, three repeats, read-out: MIC
[8] = P. aeruginosa PA14, micro-dilution, 1 × 10^5 CFU/mL, LB broth, 24 h, three repeats, read-out: MIC

| Structure (SMILES) | MIC (P. aeruginosa PAB41; [5]) [µg/mL] | MIC (P. aeruginosa PA2; [6]) [µg/mL] | MIC (P. aeruginosa ATCC27853; [7]) [µg/mL] | MIC (P. aeruginosa PA14 [1]; [8]) [µg/mL] | MIC [3] | FIC (lowest FIC Index) combined with Erythromycin (P. aeruginosa PA14 [2]) | FIC (lowest FIC Index) combined with Lincomycin (P. aeruginosa PA14 [2]) | FIC (lowest FIC Index) combined with Linezolid (P. aeruginosa PA14 [2]) | FIC (lowest FIC Index) combined with Nisin (P. aeruginosa PA14 [2]) | FIC (lowest FIC Index) combined with Vancomycin (P. aeruginosa PA14 [2]) | other results |
| --- | --- | --- | --- | --- | --- | --- | --- | --- | --- | --- | --- |
| CN[C@H](CC(C)C)C(=O)N[C@H]1C(=O)N[C@@H](CC(N)=O)C(=O)N[C@H]2C(=O)N[C@H]3C(=O)N[C@H](C(=O)N[C@H](C(=O)O)c4cc(O)cc(O)c4-c4cc3ccc4O)[C@H](O)c3ccc(c(Cl)c3)Oc3cc2cc(c3O[C@@H]2O[C@H](CO)[C@@H](O)[C@H](O)[C@H]2O[C@H]2C[C@](C)(N)[C@H](O)[C@H](C)O2)Oc2ccc(cc2Cl)[C@H]1O [Vancomycin, vancomycin] | – | – | – | – | – | – | – | – | – | – | MIC (P. aeruginosa PAB41; PAB41, 24 h): > 256 µg/mL; MIC (P. aeruginosa PA2; PA2, 24 h): > 256 µg/mL; MIC (P. aeruginosa ATCC27853; ATCC27853, 24 h): > 256 µg/mL; MIC (P. aeruginosa PA14 [1]; PA14, 24 h): > 256 µg/mL |
| CC(C)C[C@@H]1NC(=O)[C@@H](CC(C)C)NC(=O)[C@H](CCN)NC(=O)[C@@H](NC(=O)[C@@H](N)CCN)CCNC(=O)[C@H]([C@@H](C)O)NC(=O)[C@H](CCN)NC(=O)[C@H](CCN)NC1=O [PEOP, polymyxin E octapeptide] (H-[Dab][Dab][Dab][dL]L[Dab][Dab]T; lactam 2-C (inferred); N-terminus assumed) | – | – | – | – | over 256 µg/mL | 0.313 | 0.141 | 0.188 | 0.313 | 0.125 | – |
| CC(C)C[C@@H]1NC(=O)[C@@H](Cc2ccccc2)NC(=O)[C@H](CCN)NC(=O)[C@@H](NC(=O)[C@@H](N)CCN)CCNC(=O)[C@H]([C@@H](C)O)NC(=O)[C@H](CCN)NC(=O)[C@H](CCN)NC1=O [PBOP, polymyxin B octapeptide] (H-[Dab][Dab][Dab][dF]L[Dab][Dab]T; lactam 2-C (inferred); N-terminus assumed) | – | – | – | – | over 256 µg/mL | 0.156 | 0.094 | 0.078 | 0.313 | 0.156 | bacterial CFU / bactericidal activity (PAB41): no remarkably bactericidal activity; bacterial CFU / bactericidal activity (PA2): no remarkably bactericidal activity; bacterial loads inside C. elegans [4]: a great number of bacteria were detected; survival of infected C. elegans [4]: died at day 3 |
| CC1(C)S[C@@H]2[C@H](NC(=O)[C@H](N)c3ccccc3)C(=O)N2[C@H]1C(=O)O [Ampicillin, ampicillin] | 8 (≈ 22.9 µM) | – | 4 (≈ 11.4 µM) | – | – | – | – | – | – | – | – |
| CC(C)C[C@@H]1NC(=O)[C@@H](CC(C)C)NC(=O)[C@H](CCN)NC(=O)[C@@H](NC(=O)[C@H](CCN)NC(=O)[C@@H](N)[C@@H](C)O)CCNC(=O)[C@H]([C@@H](C)O)NC(=O)[C@H](CCN)NC(=O)[C@H](CCN)NC1=O [PENP, polymyxin E nonapeptide] (H-T[Dab][Dab][Dab][dL]L[Dab][Dab]T; lactam 3-C (inferred); N-terminus assumed) | – | – | – | – | over 256 µg/mL | 0.281 | 0.125 | 0.281 | 0.375 | 0.188 | – |
| CCC[C@@H]1C[C@@H](C(=O)N[C@@H]([C@H]2O[C@H](SC)[C@H](O)[C@@H](O)[C@H]2O)[C@@H](C)O)N(C)C1 [Lincomycin, lincomycin] | > 256 | > 256 | > 256 | > 256 | – | – | – | – | – | – | – |
| CC(C)C[C@@H]1NC(=O)[C@@H](Cc2ccccc2)NC(=O)[C@H](CCN)NC(=O)[C@@H](N)CCNC(=O)[C@H]([C@@H](C)O)NC(=O)[C@H](CCN)NC(=O)[C@H](CCN)NC1=O [PBHP, polymyxin B heptapeptide] (H-[Dab][Dab][dF]L[Dab][Dab]T; lactam 1-C (inferred); N-terminus assumed) | – | – | – | – | over 256 µg/mL | 0.281 | 0.188 | 0.141 | 0.375 | 0.141 | – |
| CC(C)C[C@@H]1NC(=O)[C@@H](Cc2ccccc2)NC(=O)[C@H](CCN)NC(=O)[C@@H](NC(=O)[C@H](CCN)NC(=O)[C@@H](N)[C@@H](C)O)CCNC(=O)[C@H]([C@@H](C)O)NC(=O)[C@H](CCN)NC(=O)[C@H](CCN)NC1=O [PBNP, polymyxin B nonapeptide] (H-T[Dab][Dab][Dab][dF]L[Dab][Dab]T; lactam 3-C (inferred); N-terminus assumed) | – | – | – | – | over 256 µg/mL | 0.188 | 0.156 | 0.156 | 0.250 | 0.250 | – |
| CC[C@H]1OC(=O)[C@H](C)[C@@H](O[C@H]2C[C@@](C)(OC)[C@@H](O)[C@H](C)O2)[C@H](C)[C@@H](O[C@@H]2O[C@H](C)C[C@H](N(C)C)[C@H]2O)[C@](C)(O)C[C@@H](C)C(=O)[C@H](C)[C@@H](O)[C@]1(C)O [Erythromycin, erythromycin] | > 256 | > 256 | > 256 | > 256 | – | – | – | – | – | – | – |

Now from value to compound, other results behind:

| MIC (P. aeruginosa PAB41; [5]) [µg/mL] | MIC (P. aeruginosa PA2; [6]) [µg/mL] | MIC (P. aeruginosa ATCC27853; [7]) [µg/mL] | MIC (P. aeruginosa PA14 [1]; [8]) [µg/mL] | MIC [3] | Structure (SMILES) | FIC (lowest FIC Index) combined with Erythromycin (P. aeruginosa PA14 [2]) | FIC (lowest FIC Index) combined with Lincomycin (P. aeruginosa PA14 [2]) | FIC (lowest FIC Index) combined with Linezolid (P. aeruginosa PA14 [2]) | FIC (lowest FIC Index) combined with Nisin (P. aeruginosa PA14 [2]) | FIC (lowest FIC Index) combined with Vancomycin (P. aeruginosa PA14 [2]) | other results |
| --- | --- | --- | --- | --- | --- | --- | --- | --- | --- | --- | --- |
| 2 (≈ 3.41 µM) | 4 (≈ 6.83 µM) | 4 (≈ 6.83 µM) | 2 (≈ 3.41 µM) | – | CN(C)c1cc(NC(=O)CNC(C)(C)C)c(O)c2c1C[C@H]1C[C@H]3[C@H](N(C)C)C(O)=C(C(N)=O)C(=O)[C@@]3(O)C(O)=C1C2=O [Tigecycline, tigecycline] | – | – | – | – | – | – |
| 1 (≈ 2.77 µM) | 0.5 (≈ 1.38 µM) | 0.5 (≈ 1.38 µM) | 0.5 (≈ 1.38 µM) | – | CC1COc2c(N3CCN(C)CC3)c(F)cc3c(=O)c(C(=O)O)cn1c23 (stereo not drawn) [Ofloxacin, ofloxacin] | – | – | – | – | – | – |
| > 256 | > 256 | > 256 | > 256 | – | CC(=O)NC[C@H]1CN(c2ccc(N3CCOCC3)c(F)c2)C(=O)O1 [Linezolid, linezolid] | – | – | – | – | – | bacterial CFU / bactericidal activity (PAB41): no remarkably bactericidal activity; bacterial CFU / bactericidal activity (PA2): no remarkably bactericidal activity; bacterial loads inside C. elegans [4]: a great number of bacteria were detected; survival of infected C. elegans [4]: died at day 3 |
| 4 (≈ 12 µM) | 4 (≈ 12 µM) | 8 (≈ 23.9 µM) | 8 (≈ 23.9 µM) | – | CC1(C)S[C@@H]2[C@H](NC(=O)Cc3ccccc3)C(=O)N2[C@H]1C(=O)O [Penicillin G, penicillin G] | – | – | – | – | – | – |
| – | – | – | – | over 256 µg/mL | CC(C)C[C@@H]1NC(=O)[C@@H](CC(C)C)NC(=O)[C@H](CCN)NC(=O)[C@@H](N)CCNC(=O)[C@H]([C@@H](C)O)NC(=O)[C@H](CCN)NC(=O)[C@H](CCN)NC1=O [PEHP, polymyxin E heptapeptide] (H-[Dab][Dab][dL]L[Dab][Dab]T; lactam 1-C (inferred); N-terminus assumed) | 0.258 | 0.250 | 0.141 | 0.266 | 0.156 | – |
| 8 (≈ 16.7 µM) | 4 (≈ 8.35 µM) | 4 (≈ 8.35 µM) | 4 (≈ 8.35 µM) | – | CN(C)[C@@H]1C(O)=C(C(N)=O)C(=O)[C@@]2(O)C(O)=C3C(=O)c4c(O)ccc(Cl)c4[C@@](C)(O)[C@H]3C[C@@H]12 [Chlortetracycline, chlortetracycline] | – | – | – | – | – | – |
